Test results taken from US6455259B2, “Methods for detecting, selecting and cloning agents that degrade or promote degradation of DNA” (priority 1998, dated 2002).

How the values were obtained:
[1] = system: E. coli strain MC1061; assay: Cell viability after bleomycin treatment; assay type: cell-based; conditions: 10 μg/ml bleomycin, 60 minutes, 32 C, Luria Broth plus 0.2% glucose
Procedure: (§1) In this example, a T4 denA mutant phage is complemented with an antibiotic known to cause single strand breaks in DNA, bleomycin. In this example, the production of any viable progeny phage above the background will be evidence of complementation. E. coli strain MC1061, growing at 32∞ C in Luria Broth plus 0.2% glucose was treated for 60 minutes with 10 μg/ml of bleomycin, which was then removed by centrifuging the cells and re-suspending them in an equal volume of the same media. Under these treatment conditions, cell viability is reduced to about 40-50% of that at the beginning of the treatment. The cells are then allowed to grow for various amounts of time at 32∞ C. in the absence of bleomycin, at which times HU is added to 200 mM.

[2] = system: E. coli strain MC1061; assay: Complementation of T4 denA mutant phage by bleomycin: progeny phage production; assay type: cell-based
Procedure: as §1
Phage mutant in both the denA and denB genes is added five minutes later. Unadsorbed input phage are eliminated by treating the infected cultures with anti-T4 sera added 15-20 minutes after infection. This anti-T4 sera treatment to eliminate unadsorbed input phage allows detection of a lower level of progeny phage production. However, the anti-T4 sera must be removed or it will also inactivate progeny phage. This was done by centrifuging the infected cultures 50 minutes after infection, washing the pellets with one-tenth volume of media, centrifuging again, re-suspending the culture in one volume of media and immediately causing lysis of the productive cells by the addition of chloroform.
Progeny phage production was assayed by standard methods. A control infection was also done on cells given no bleomycin treatment.

bleomycin
cell viability, relative to that at the beginning of the treatment [1]: 40-50% | factor increase of progeny titre over control (no Bleomycin) ([2]; outgrowth 0 minutes): 1300 | factor increase of progeny titre over control (no Bleomycin) ([2]; outgrowth 20 minutes): 13000 | factor increase of progeny titre over control (no Bleomycin) ([2]; outgrowth 40 minutes): 24000 | factor increase of progeny titre over control (no Bleomycin) ([2]; outgrowth 60 minutes): 45000
